From patent publication EP3730147A1, “PREPARATION WITH HYPOGLYCEMIC EFFECT” (Instytut Biotechnologii i Badan Medycznych "Biolamed" SP. Z …, priority 2019, dated 2020) come the findings set out here.

Experiment [1] deals with T1, rat liver glucose-6-phosphate dehydrogenase (DG-6-P) (Rattus norvegicus, UniProt P05370).
T1 construct: an additional enzyme purification procedure was performed; from tissue; host or cells: rat liver (5.6-fold purified enzyme preparation)
The experiment is described as follows: Effect on DG-6-P activity in 5.6-fold purified rat liver enzyme. Conditions: for remaining activity at 5 µM / remaining activity at 25 µM: read-out: % of control (DG-6-P activity). The experiment is classed as biochemical. An excerpt:
(§1) Rat liver glycogen phosphorylase, rat liver and skeletal muscle hexokinase, rat liver glucose-6-phosphate dehydrogenase (DG-6-P), rat liver and skeletal muscle phosphofructokinase were selected as potential targets for in vitro testing of the hypoglycemic activity of lupane triterpenoids.
Surprising results were obtained by examining the effect of lupane triterpenoids on glucose-6-phosphate activity. […] In both cases, the observed effects were dose-dependent. […] Table 1. Effect of lupane triterpenoids on DG-6-P activity in 5.6-fold purified rat liver

Experiment [2] deals with Wistar rats. In words: Blood glucose after glucose load in rats with alloxan-induced diabetes. The experiment is classed as in vivo. Conditions: 100 mg/kg; for Glucose concentration: glucose load 4 g/kg 4 hours after drug; for time after glucose administration at which glucose indicators normalized: alloxan diabetes, glucose load 4 g/kg. The protocol: The study was conducted on Wistar rats weighing 220-250 g. All animals were subjected to two weeks of observation prior to the experiment to exclude infection. Rats were housed in standard cages, 5 individuals in each. The animals stayed in a room with a temperature of 22±2°C, air humidity 60-70% and in natural lighting (12/12 in a day/night cycle). The animals had free access to water and standard laboratory feed ad libitum.
Diabetes was caused by a single intraperitoneal administration of alloxan at a dose of 170 mg/kg bw. The development of diabetes was observed on the basis of the main symptoms (polydipsia, polyphagia), glycosuria and hyperglycemia. Animals with high glucose levels of at least 14 mmol/L were selected for the experiment.
Animals were randomized into 6 groups of 8 individuals each. The first group, the control group, was formed from healthy animals without diabetes. The control group (healthy animals) received NaCl 1 ml/kg; Group 2. - diabetes mellitus (DM), received NaCl 1 ml/kg; Group 3. - DM + Betulin, at a dose of 100 mg/kg; Group 4. - DM + Lupeol, at a dose of 100 mg/kg; Group 5 - DM + Betulonic acid, at a dose of 100 mg/kg; Group 6 - DM + Betulinic acid, at a dose of 100 mg/kg; Group 7 - DM + Betulin-3,28-diacetate, at a dose of 100 mg/kg.
4 hours after drug administration, all animals intragastrically received a 40% glucose solution at a dose of 4 g/kg. The time of administration is determined in the available literature on its pharmacokinetics - peak plasma levels of lupane triterpenoids in rats are observed 3-4 hours after intragastric administration.
Peripheral blood glucose was determined using a Roche AccuCheck Active meter (USA) before and after glucose administration every 60 minutes for 5 hours. A drop of blood was taken from the tail tip incision.

For experiment [3], the target named is T2, Rat liver glycogen phosphorylase (Rattus norvegicus, UniProt P09811).
T2 construct: from tissue; host or cells: rat liver homogenates and post-mitochondrial fraction
T2 sequence (P09811 1-850): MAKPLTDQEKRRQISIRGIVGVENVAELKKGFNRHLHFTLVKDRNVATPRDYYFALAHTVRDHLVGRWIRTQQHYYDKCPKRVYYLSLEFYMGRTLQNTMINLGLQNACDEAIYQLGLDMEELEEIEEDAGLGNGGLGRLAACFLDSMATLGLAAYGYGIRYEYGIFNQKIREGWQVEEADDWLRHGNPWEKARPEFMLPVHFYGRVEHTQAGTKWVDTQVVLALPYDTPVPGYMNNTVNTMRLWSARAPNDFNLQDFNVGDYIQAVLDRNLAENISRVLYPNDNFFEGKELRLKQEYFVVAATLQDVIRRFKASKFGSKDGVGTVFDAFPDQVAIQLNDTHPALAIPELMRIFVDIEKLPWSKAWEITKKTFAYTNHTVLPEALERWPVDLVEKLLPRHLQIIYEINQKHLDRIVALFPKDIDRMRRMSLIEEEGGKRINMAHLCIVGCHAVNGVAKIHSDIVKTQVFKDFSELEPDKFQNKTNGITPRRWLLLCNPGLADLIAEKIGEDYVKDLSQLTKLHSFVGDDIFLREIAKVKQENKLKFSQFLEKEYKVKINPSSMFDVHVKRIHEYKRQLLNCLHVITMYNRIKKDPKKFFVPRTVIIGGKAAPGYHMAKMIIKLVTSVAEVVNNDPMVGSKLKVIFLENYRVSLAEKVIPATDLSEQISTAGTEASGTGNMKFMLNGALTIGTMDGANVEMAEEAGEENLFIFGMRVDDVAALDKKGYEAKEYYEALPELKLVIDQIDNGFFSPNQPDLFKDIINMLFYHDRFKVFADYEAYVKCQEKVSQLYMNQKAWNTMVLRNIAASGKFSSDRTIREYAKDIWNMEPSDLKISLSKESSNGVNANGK
In words: Effect on glycogen phosphorylase activity in rat liver homogenates and post-mitochondrial fraction. Format: biochemical.
Text: as §1

A further experiment relates to pancreatic islet β-cells. The experiment is described as follows: Insulin secretion by isolated Langerhans islets (enzyme immunoassay). To be noted: 10 µM, 30 minutes incubation, compared to the control group. The experiment is classed as cell-based. Here is the method: To study the effect of betulin and betulinic acid on insulin secretion by pancreatic islet β-cells, their solutions in DMSO were incubated with isolated Langerhans islands in concentrations of 10 µM for 30 minutes, after which the insulin content in the incubation medium was determined by enzyme immunoassay.
The strongest reaction was observed after 30 minutes of incubation in the presence of 10 µM lupane triterpenoids (Figure 1).

The subject of experiment [4] is Wistar rats. The experiment is described as follows: Blood glucose in rats with glucose-induced hyperglycemia (OGTT-2 / OGTT-4). The experiment is classed as in vivo. To be noted: compared to control animals. Here is the method:
To study the effect of betulin, 3,28-diacetate betulin, betulinic acid and lupeol on blood glucose levels in rats with induced hyperglycemia, the animals received 2 hours prior to glucose administration, test substances at doses of 100 or 1000 mg/kg. Hyperglycaemia was caused by oral administration of a 40% glucose solution at a dose of 2 g/kg (OGTT-2) or 4 g/kg (OGTT-4). The study was conducted on Wistar rats weighing 220-250 g. All animals were subjected to two weeks of observation prior to the experiment to exclude infection. Rats were housed in standard cages, 5 individuals in each. […] The animals had free access to water and standard laboratory feed ad libitum. Animals were randomized into 5 groups, 8 individuals each. Hyperglycaemia was caused by administration of a 40% glucose solution at doses of 2 or 4 g/kg. […] Blood glucose was determined with a Roche AccuCheck Active glucometer (USA) before and after glucose administration every 30 minutes for 2 hours and then every 60 minutes for 6 hours.

The subject of experiment [5] is Wistar rats. In words: Pancreatic islet morphometry in rats with alloxan-induced diabetes, 30 days treatment. Format: in vivo. Here is the method:
The possible cytoprotective effect of lupane triterpenoids on the functional state of the pancreas in alloxan-induced diabetes in rats was evaluated. Alloxane was used to induce diabetes, which causes damage to the necrotic islet type pancreatic apparatus due to selective accumulation in β-cells and induction of massive free radical generation. The study was conducted on Wistar rats weighing 220-250 g. All animals were subjected to two weeks of observation prior to the experiment to exclude infection. Rats were housed in standard cages, 5 individuals in each. […] The animals had free access to water and standard laboratory feed ad libitum. Diabetes was caused by a single intraperitoneal administration of alloxan at a dose of 170 mg/kg bw. The development of diabetes was observed on the basis of the main symptoms (polydipsia, polyphagia), glycosuria and hyperglycemia. Animals with high glucose levels of at least 14 mmol/L were selected for the experiment. Animals were randomized into 8 groups of 8 individuals each. The first group, the control group, was formed from healthy animals without diabetes. The control group (healthy animals) received NaCl 1 ml/kg; Group 2 - DM + Lupeol, at a dose of 100 mg/kg; Group 3 - DM + Betulonic acid, at a dose of 100 mg/kg; Group 4 - DM + 3,28-betulin diacetate, at a dose of 100 mg/kg; Group 5 - DM + Betulinic acid, at a dose of 50 mg/kg; Group 6 - DM + Betulinic acid, at a dose of 100 mg/kg; Group 7 - DM + Betulin, at a dose of 50 mg/kg; Group 8 - DM + Betulin, at a dose of 100 mg/kg.

Where [6] appears, read: 50 mg/kg/day for 30 days, compared to the untreated group.

Marks after values point to notes of the source that are not given here.

T1 sequence (P05370 whole entry): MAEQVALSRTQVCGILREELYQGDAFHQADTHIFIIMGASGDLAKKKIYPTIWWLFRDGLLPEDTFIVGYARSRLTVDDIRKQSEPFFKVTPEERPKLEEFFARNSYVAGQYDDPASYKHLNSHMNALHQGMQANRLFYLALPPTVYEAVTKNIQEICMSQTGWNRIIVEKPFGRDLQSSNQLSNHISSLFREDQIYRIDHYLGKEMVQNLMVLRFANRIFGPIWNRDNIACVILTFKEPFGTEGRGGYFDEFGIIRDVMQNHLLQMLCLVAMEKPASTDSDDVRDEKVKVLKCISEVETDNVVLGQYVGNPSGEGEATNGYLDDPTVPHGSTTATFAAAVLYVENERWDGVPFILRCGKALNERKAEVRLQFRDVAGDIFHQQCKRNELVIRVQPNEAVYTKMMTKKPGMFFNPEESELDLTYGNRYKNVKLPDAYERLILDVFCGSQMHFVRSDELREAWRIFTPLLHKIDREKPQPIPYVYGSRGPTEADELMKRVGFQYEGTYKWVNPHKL

Take `C=C(C)[C@@H]1CC[C@]2(COC(C)=O)CC[C@]3(C)[C@H](CC[C@@H]4[C@@]5(C)CC[C@H](OC(C)=O)C(C)(C)[C@@H]5CC[C@]43C)[C@@H]12` [3,28-betulin diacetate]: in experiment [1] (5 µM), the “E (DG-6-P activity)” value is recorded as 0,158±0,002 and the remaining activity at 5 µM is 75%. For the same compound, in experiment [1] (25 µM), the “E (DG-6-P activity)” value was 0,111±0,008 and the remaining activity at 25 µM was found to be 52.8%. Also, the Glucose concentration with Wistar rats [2] (blood collection time 5 hours) was 8,51±0,52 mmol/l.

Take `CC1(C)CC[C@]23CC[C@]4(C)[C@H](CC[C@@H]5[C@@]6(C)CC[C@H](O)C(C)(C)[C@@H]6CC[C@]54C)[C@H]2[C@H]1OC3` [Allobetulin]: in experiment [1] (5 µM), the “E (DG-6-P activity)” value is listed as 0,151±0,004 and the remaining activity at 5 µM turned out to be 72%. In experiment [1] (25 µM), the “E (DG-6-P activity)” value is reported as 0,103±0,002 and the remaining activity at 25 µM amounted to 49%.

Take `C=C(C)[C@@H]1CC[C@]2(CO)CC[C@]3(C)[C@H](CC[C@@H]4[C@@]5(C)CC[C@H](O)C(C)(C)[C@@H]5CC[C@]43C)[C@@H]12` [Betulin]: in experiment [1] (5 µM), the “E (DG-6-P activity)” value is 0,149±0,004 and the remaining activity at 5 µM amounted to 71%. In addition, in experiment [1] (25 µM), the “E (DG-6-P activity)” value is reported as 0,100±0,002 and the remaining activity at 25 µM was determined as 47.6%. Moreover, the glycogen phosphorylase activity result in experiment [3] is on record as “greatest inhibitory effect”. The “insulin secretion by pancreatic islet β-cells” value in the experiment on pancreatic islet β-cells is given as “statistically significantly increase”. Moreover, the “reduction in blood glucose levels at the peak of hyperglycemia” value in the experiment with Wistar rats [4] is listed as 30-35%. Further, the “time after glucose administration at which glucose indicators normalized” value with Wistar rats [2] was determined as 4 h. In the experiment on Wistar rats [2] (blood collection time 0 hours), the Glucose concentration is reported as 10,82±0,31 mmol/l. The Glucose concentration in the experiment on Wistar rats [2] (blood collection time 2 hours) was 22,61±0,4 mmol/l. Also, the Glucose concentration in the experiment with Wistar rats [2] (blood collection time 5 hours) was 6,01±0,78 mmol/l. For the same compound, the “area of Langerhans islets and their number” value with Wistar rats [5] (50 mg/kg/day for 30 days) was “tendency to increase”. Moreover, in the experiment with Wistar rats [5] (setting [6]), the “increase of the number of β-cells in the islets” value is reported as 25-35% and the islet diameter increase is on record as 10-15%. Besides, the “morphological picture of the pancreas” value in the experiment with Wistar rats [5] (100 mg/kg/day for 30 days, compared to the untreated group) is recorded as “significant improvement”.

As to `C=C(C)[C@@H]1CC[C@]2(C(=O)O)CC[C@]3(C)[C@H](CC[C@@H]4[C@@]5(C)CC[C@H](O)C(C)(C)[C@@H]5CC[C@]43C)[C@@H]12` [Betulinic acid], in experiment [1] (5 µM), the remaining activity at 5 µM stood at 68.8%. Further, the remaining activity at 25 µM in experiment [1] (25 µM) was 44.2%. The “reduction in blood glucose levels at the peak of hyperglycemia” value in the experiment with Wistar rats [4] was 30-35%. The “time after glucose administration at which glucose indicators normalized” value in the experiment with Wistar rats [2] is 4 h. Moreover, the Glucose concentration in the experiment with Wistar rats [2] (blood collection time 0 hours) was 10,12±0,70 mmol/l; in the experiment on Wistar rats [2] (blood collection time 2 hours), 25,64±1,50 mmol/l; in the experiment on Wistar rats [2] (blood collection time 5 hours), 7,88±1,30* * mmol/l. Further, the “increase of the number of β-cells in the islets” value with Wistar rats [5] (setting [6]) is reported as 25-35%. Also, the islet diameter increase with Wistar rats [5] (setting [6]) is listed as 10-15%.

For `C=C(C)[C@@H]1CC[C@]2(C(=O)O)CC[C@]3(C)[C@H](CC[C@@H]4[C@@]5(C)CCC(=O)C(C)(C)[C@@H]5CC[C@]43C)[C@@H]12` [Betulonic acid], the “E (DG-6-P activity)” value in experiment [1] (5 µM) is listed as 0,148±0,003; in experiment [1] (25 µM), 0,109±0,007. Further, the remaining activity at 5 µM in experiment [1] (5 µM) is 70.3%. In experiment [1] (25 µM), the remaining activity at 25 µM turned out to be 51.9%. For the same compound, the glycogen phosphorylase activity result in experiment [3] is reported as “greatest inhibitory effect”. Also, the Glucose concentration with Wistar rats [2] (blood collection time 0 hours) is on record as 10,32±0,77 mmol/l; with Wistar rats [2] (blood collection time 2 hours), 18,5±0,32 mmol/l; with Wistar rats [2] (blood collection time 5 hours) it was 6,52±0,7 mmol/l.

Take `C=C(C)[C@@H]1CC[C@]2(C)CC[C@]3(C)[C@H](CC[C@@H]4[C@@]5(C)CC[C@H](O)C(C)(C)[C@@H]5CC[C@]43C)[C@@H]12` [Lupeol]: in experiment [1] (5 µM), the “E (DG-6-P activity)” value is recorded as 0,143±0,005 and the remaining activity at 5 µM worked out at 68%. Besides, in experiment [1] (25 µM), the “E (DG-6-P activity)” value is listed as 0,113±0,009 and the remaining activity at 25 µM is 53.6%. The Glucose concentration in the experiment with Wistar rats [2] (blood collection time 5 hours) is 9,38±0,75 mmol/l.
